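Exposure lasted 48 hours, with cells grown in 96-well plates and compounds tested at five concentrations. GI50 = concentration required for 50% inhibition of growth. TGI denotes the concentration required for complete inhibition of growth.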
Columns and labels:
Experiment in all cases: NCI-60 cell line screen, 48 h
HOP-92 NSCLC = system: HOP-92 NSCLC
HCT-15 colon = system: HCT-15 colon
NCI-H226 lung = system: NCI-H226 lung
SF-295 CNS = system: SF-295 CNS
MOLT-4 leukemia = system: MOLT-4 leukemia
RPMI-8226 leukemia = system: RPMI-8226 leukemia
MCF7 breast = system: MCF7 breast
A498 renal = system: A498 renal
NCI/ADR-RES ovarian = system: NCI/ADR-RES ovarian

| SMILES | TGI (HOP-92 NSCLC) [µM] | TGI (HCT-15 colon) [µM] | TGI (NCI-H226 lung) [µM] | TGI (SF-295 CNS) [µM] | TGI (MOLT-4 leukemia) [µM] | TGI (RPMI-8226 leukemia) [µM] | GI50 (HOP-92 NSCLC) [µM] | GI50 (NCI-H226 lung) [µM] | GI50 (MCF7 breast) [µM] | TGI (MCF7 breast) [µM] | GI50 (A498 renal) [µM] | TGI (A498 renal) [µM] | GI50 (SF-295 CNS) [µM] | GI50 (NCI/ADR-RES ovarian) [µM] | TGI (NCI/ADR-RES ovarian) [µM] | GI50 (RPMI-8226 leukemia) [µM] | GI50 (HCT-15 colon) [µM] | GI50 (MOLT-4 leukemia) [µM] |
| --- | --- | --- | --- | --- | --- | --- | --- | --- | --- | --- | --- | --- | --- | --- | --- | --- | --- | --- |
| O=C(c1ccc(Cl)cc1)c1ccc(OCCCOc2ccc(C(=O)c3ccc(Cl)cc3)cc2Cl)c(Cl)c1 | > 100 | > 100 | > 100 | > 100 | > 100 | > 100 | – | – | – | – | – | – | – | – | – | – | – | – |
| CN1CCN(C(=O)COc2ccc(/C=C3\CC4C5CC=C6CC(Cl)CCC6(C)C5CCC4(C)C3=O)cc2)CC1 (stereo not given) | > 100 | – | > 100 | > 100 | – | > 100 | 10.4 | > 100 | > 100 | > 100 | > 100 | > 100 | > 100 | > 100 | > 100 | 6.9 | – | – |
| O=C1C2C3CC(C4C5C=CC(C5)C34)C2C2C3CC(C12)C1C2C=CC(C2)C31 (stereo not given) | > 100 | > 100 | > 100 | > 100 | > 100 | – | – | – | – | – | – | > 100 | – | – | – | – | – | – |
| O=C(/C=C\c1cccc2ccccc12)c1ccc(Cl)cc1Cl | – | 26.6 | > 100 | 49.9 | 63.9 | 46.6 | – | – | – | – | – | > 100 | – | – | – | – | – | – |
| c1ccc(CNCCN(CCNCc2ccccn2)Cc2ccc3ccccc3c2)nc1 | 4.64 | 5.01 | 3.53 | 3.55 | 7.5 | 6.65 | 1.79 | 1.77 | 2.86 | 10.5 | 1.86 | 3.71 | 1.42 | 2.4 | 6.96 | 2.67 | 1.16 | 2.58 |
| COC1(OC)C2(Cl)C(Cl)=C(Cl)C1(Cl)C1C2C2CC1(C(=O)O)c1ccccc12 (stereo not given) | 93.4 | 62.3 | 52.5 | 56.8 | 43.3 | 54.5 | – | – | – | – | – | > 100 | – | – | – | – | – | – |
| COC1OC2COC(C)(C)OC2C(OC(C)=O)C1NC(=O)N(CCCl)N=O (stereo not given) | – | > 100 | > 100 | > 100 | > 100 | – | – | – | – | – | – | > 100 | – | – | – | – | – | – |
| CC(=O)[C@H]1CCC2[C@@H]3CC=C4C[C@@H]([O-])CC[C@]4(C)C3CC[C@@]21C.CC(=O)[C@H]1CCC2[C@@H]3CC=C4C[C@@H]([O-])CC[C@]4(C)C3CC[C@@]21C.CC(=O)[CH-]C(=O)c1ccccc1.CC(=O)[CH-]C(=O)c1ccccc1.Cl.[Ti+4] (stereo not given in full) | – | > 100 | 44.9 | 46.4 | > 100 | > 100 | – | 16.1 | – | – | 12.8 | 27 | 17.4 | – | – | 15 | 17.6 | 38.1 |
| S=c1ncc2c([nH]1)C1c3ccccc3C2c2ccccc21 | – | > 100 | > 100 | > 100 | > 100 | > 100 | – | – | – | – | – | – | – | – | – | – | – | – |
| Nc1c(Cl)ncnc1NCCCCCCCCCCCCNc1ncnc(Cl)c1N | 4.3 | > 100 | – | 5.92 | – | 5.74 | – | – | – | – | – | > 100 | – | – | – | – | – | – |
| CN(/N=C\c1ccnc2ccccc12)c1ccc([N+](=O)[O-])cc1 | > 100 | > 100 | > 100 | > 100 | > 100 | 65.4 | – | – | – | – | – | > 100 | – | – | – | – | – | – |
| CC(=O)[CH-]C(=O)c1ccccc1.CC(=O)[CH-]C(=O)c1ccccc1.CC(=O)[CH-]C(=O)c1ccccc1.[Nd+3].[OH3+] | 77.4 | > 100 | > 100 | 86.2 | > 100 | > 100 | 29.5 | > 100 | – | – | > 100 | > 100 | 21.2 | – | – | 46.6 | 42 | 28.4 |
| COc1cc(/C=N/N=C(\N)NO)c(Cl)cc1O | 73.2 | > 100 | > 100 | > 100 | > 100 | > 100 | – | – | – | – | – | > 100 | – | – | – | – | – | – |
| NC1=NN(c2ccccc2)C(=O)C1C(=O)C(=O)Nc1ccc(Cl)c(Cl)c1 (stereo not given) | > 100 | > 100 | > 100 | > 100 | > 100 | > 100 | – | – | – | – | – | > 100 | – | – | – | – | – | – |
| COC(=O)[C@@]12CC(C(C)C)[C@H]3CC(C(=O)C=C1OC)[C@H]32 (stereo not given in full) | > 100 | > 100 | – | > 100 | > 100 | > 100 | – | – | – | – | – | > 100 | – | – | – | – | – | – |
| COc1ccc(OC)c(/C=N/N=C(\N)NO)c1 | 83.6 | > 100 | > 100 | > 100 | – | – | – | – | – | – | – | – | – | – | – | – | – | – |
| Cc1cc(=O)n(-c2cc3cccccc-3n2)[nH]1 | – | 25.5 | 44.4 | > 100 | > 100 | 67.2 | – | – | – | – | – | 46.9 | – | – | – | – | – | – |

Source: PubChem BioAssay (NCI)
